Measurements published in ChEMBL document CHEMBL1201862, “PubChem BioAssay data set” (2004).
Calls of active or inactive are those of the source.

How the values were obtained:
[1] = luciferase reporter signal suppression in cells – H4 neuroglioma cells, luminescence, dose response (AID 1990); format: functional, cell-based
BJ [2] = assay: BJ-TERT fibroblast viability loss – cell-based, RAS-independent, luminescence, dose response (AID 1933); format: functional; conditions: Homo sapiens
[3] = DRD fibroblast viability loss – cell-based, non-viral oncogenic, luminescence, dose response (AID 1934); format: functional; conditions: Homo sapiens
[4] = alpha-synuclein stem-loop luciferase translation blockers – H4 neuroglioma cells, luminescence, confirmation (AID 1988); format: functional, cell-based
BJ [5] = assay: cells; format: functional, cell-based; conditions: Homo sapiens
BJ [6] = assay: BJ-TERT-LT-ST fibroblast viability loss – cell-based, RAS-independent, luminescence, dose response (AID 1935); format: functional; conditions: Homo sapiens;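 also: BJ fibroblasts immortalized with TERT plus LT and ST oncogenes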
[7] = reduction of Shn3 3'UTR-driven luciferase in osteoblasts – cell-based, Clone20 osteoblasts, firefly luciferase, cherry-picked, dose response (AID 624132); format: functional;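 also: firefly luciferase luminescence from reporter carrying the Shn3 3'UTR in osteoblasts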
[8] = Luminescence Cell-Based Dose Response HTS to Identify Inhibitors of 5'UTR Stem-Loop Driven Prion Protein mRNA Translation in H4 Neuroglioblastoma Cells. [Related pubchem assays: 1827 (Project Summary), 1813 (Primary HTS)]; format: functional
BJ [9] = assay: growth inhibition of engineered Ras-driven BJ cells – cell-based, alamar blue fluorescence, cherrypicked samples, dose response (AID 2631); format: functional; conditions: Homo sapiens;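 also: confirmatory dose-response assay in RAS-dependent BJ fibroblasts engineered with TERT, LT and ST, with cytotoxicity read by fluorescence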
[10] = blockers of HIV-1 ZM109 envelope-driven cell-cell fusion – HeLa effector, CEM target cells, luciferase, cherry-pick, dose response (AID 652058); format: functional, cell-based;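 also: luciferase signal from HIV-1 Env mediated cell-cell fusion of effector and target cells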
[11] = blockers of HIV-1 envelope-mediated cell-cell fusion – cherry-pick, dose response (AID 652057); format: functional, cell-based
[12] = target: Voltage-dependent T-type calcium channel subunit alpha-1H (Homo sapiens, UniProt O95180); format: functional;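 also: channel activity triggered by adding a high calcium stimulation buffer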
[13] = HIV-1 AD8 envelope cell-cell fusion blockers – cherry-pick, dose response (AID 652062); format: functional, cell-based;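 also: luciferase signal from cell-cell fusion driven by HIV-1 clade B AD8 Env; potency is for inhibitors of fusion seen as a drop in luminescence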
Nonstructural protein 1 = Nonstructural protein 1 (Influenza A virus, UniProt Q194T2); format: functional, Influenza A virus (A/California/07/2009(H1N1))
[14] = target: Heat shock protein HSP 90-alpha (Homo sapiens, UniProt P07900); format: functional, organism-based
[15] = tested on: Streptococcus sp. 'group A'; assay: Streptococcus pyogenes SK(-)GAS viability under kanamycin – luminescence, BacTiterGlo, confirmation, counter-screen for streptokinase expression inhibitor project, dose response (AID 1900); format: functional, organism-based
Streptococcus = assay: GAS UMAA2166 growth inhibition – luminescence, BacTiterGlo, counter-screen for streptokinase expression inhibitor project, dose response (AID 1915); format: functional, organism-based;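 also: potency for reduction of bacterial viability or growth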
[16] = non-specific 3'UTR reporter inhibition in Clone20-Shn3RL – cell-based, Renilla luciferase, cherry-picked, counter-screen for Shn3 inhibitor project, dose response (AID 624133); format: functional
[17] = loss of viability in HepG2 cells – cell-based, CellTiter-Glo, cherry-picked, cytotoxicity control for Shn3 inhibitor project, dose response (AID 624134); format: functional
INS1 = assay: INS-1E survival protection against cytokine death – cell-based, luminescence, retest, dose response (AID 449756); format: functional; conditions: Rattus norvegicus;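 also: cell death triggered by IL-1 beta plus TNF-alpha plus IFN-gamma mixture; protective hits raise ATP signal compared with cytokine alone wells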
[18] = target: Peroxisome proliferator-activated receptor gamma/Nuclear receptor coactivator 1 (Homo sapiens, UniProt P37231); assay: (§1) TR-FRET dose response biochemical High Throughput Screening assay for agonists of the steroid receptor coactivator 1 (SRC-1) recruitment by the peroxisome proliferator-activated receptor gamma (PPAR gamma): non-selective agonists. [Related pubchem assays (depositor defined):AID1300, AID1808, AID504735, AID631]; format: protein assay
[19] = target: Peroxisome proliferator-activated receptor gamma/Nuclear receptor coactivator 3 (Homo sapiens, UniProt P37231); assay: as §1, with “3 (SRC-3)” for “1 (SRC-1)”, “assays: 1301 (Confirmation screen.), 1048 (Primary screen.)]” for “assays (depositor defined):AID1300, AID1808, AID504735, AID631]”; format: functional
[20] = target: Peroxisome proliferator-activated receptor gamma/Nuclear receptor coactivator 2 (Homo sapiens, UniProt P37231); assay: TR-FRET dose response biochemical High Throughput Screening assay for agonists of the steroid receptor coactivator 2 (SRC-2) recruitment by the peroxisome proliferator-activated receptor gamma (PPAR gamma): non-selective agonists. [Related pubchem assays: 1297, 1032 ]; format: functional
[21] = target: T1, Short transient receptor potential channel 4 (Mus musculus, UniProt Q9QUQ5); assay: calcium entry via TRPC4 opening agents – cell-based, HEK293 TRPC4/mu-opioid, Fluo-4 calcium, dose response (AID 434937); format: functional
T1 sequence (Q9QUQ5 whole entry): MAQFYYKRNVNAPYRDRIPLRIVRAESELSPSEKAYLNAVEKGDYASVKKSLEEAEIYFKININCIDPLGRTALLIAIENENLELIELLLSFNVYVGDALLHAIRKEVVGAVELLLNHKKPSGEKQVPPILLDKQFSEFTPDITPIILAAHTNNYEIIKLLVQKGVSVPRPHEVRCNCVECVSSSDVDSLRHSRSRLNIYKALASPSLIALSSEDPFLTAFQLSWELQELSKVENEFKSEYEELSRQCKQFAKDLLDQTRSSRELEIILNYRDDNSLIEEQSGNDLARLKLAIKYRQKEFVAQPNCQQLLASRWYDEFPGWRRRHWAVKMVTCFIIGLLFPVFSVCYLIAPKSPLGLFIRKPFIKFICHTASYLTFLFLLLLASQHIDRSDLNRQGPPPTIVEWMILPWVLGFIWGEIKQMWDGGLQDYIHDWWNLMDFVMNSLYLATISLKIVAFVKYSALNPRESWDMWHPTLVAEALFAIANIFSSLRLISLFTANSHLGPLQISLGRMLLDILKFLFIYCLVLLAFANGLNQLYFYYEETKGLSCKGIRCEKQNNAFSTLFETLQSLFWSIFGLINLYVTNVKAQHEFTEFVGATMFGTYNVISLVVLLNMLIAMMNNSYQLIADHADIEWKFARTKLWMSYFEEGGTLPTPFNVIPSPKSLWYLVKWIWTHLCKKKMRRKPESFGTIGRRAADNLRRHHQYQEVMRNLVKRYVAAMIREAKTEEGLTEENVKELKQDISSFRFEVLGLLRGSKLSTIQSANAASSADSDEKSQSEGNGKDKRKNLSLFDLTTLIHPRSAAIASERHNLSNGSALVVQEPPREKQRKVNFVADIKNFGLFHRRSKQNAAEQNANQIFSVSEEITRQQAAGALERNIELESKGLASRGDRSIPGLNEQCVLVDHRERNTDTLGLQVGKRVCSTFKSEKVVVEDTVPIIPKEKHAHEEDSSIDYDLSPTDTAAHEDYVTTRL

[22] = target: T1, Short transient receptor potential channel 4; assay: block of DAMGO-driven TRPC4 calcium entry – cell-based, HEK293 TRPC4/mu-opioid, Fluo-4 calcium, dose response (AID 434942); format: functional;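 also: potency of inhibitors blocking the TRPC4 calcium response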
[23] = target: T2, Microphthalmia-associated transcription factor (Homo sapiens, UniProt O75030); assay: reducers of TRPM1 reporter luminescence, concentration series – cell-based, SK-MEL-5, cherry-picked, set 3, MITF inhibitor project, dose response (AID 493073); format: functional;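 also: SK-MEL-5 melanoma cells with luciferase driven by the MITF target TRPM1 promoter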
T2 sequence (O75030 whole entry): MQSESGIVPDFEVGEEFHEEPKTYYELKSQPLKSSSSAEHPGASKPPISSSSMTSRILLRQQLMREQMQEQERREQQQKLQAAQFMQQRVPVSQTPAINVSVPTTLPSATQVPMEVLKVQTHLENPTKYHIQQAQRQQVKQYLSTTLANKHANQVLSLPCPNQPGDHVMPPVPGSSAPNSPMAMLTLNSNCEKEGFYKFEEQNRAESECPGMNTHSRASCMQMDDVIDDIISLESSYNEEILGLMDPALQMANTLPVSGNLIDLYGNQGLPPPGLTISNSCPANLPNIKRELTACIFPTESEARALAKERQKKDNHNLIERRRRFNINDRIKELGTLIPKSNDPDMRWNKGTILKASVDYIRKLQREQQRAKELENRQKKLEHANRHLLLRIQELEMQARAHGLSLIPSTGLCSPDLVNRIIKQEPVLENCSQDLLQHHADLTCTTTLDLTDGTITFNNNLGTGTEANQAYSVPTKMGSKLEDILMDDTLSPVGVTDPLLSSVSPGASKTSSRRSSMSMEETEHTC

Sequence of Peroxisome proliferator-activated receptor gamma/Nuclear receptor coactivator 1 (P37231 whole entry): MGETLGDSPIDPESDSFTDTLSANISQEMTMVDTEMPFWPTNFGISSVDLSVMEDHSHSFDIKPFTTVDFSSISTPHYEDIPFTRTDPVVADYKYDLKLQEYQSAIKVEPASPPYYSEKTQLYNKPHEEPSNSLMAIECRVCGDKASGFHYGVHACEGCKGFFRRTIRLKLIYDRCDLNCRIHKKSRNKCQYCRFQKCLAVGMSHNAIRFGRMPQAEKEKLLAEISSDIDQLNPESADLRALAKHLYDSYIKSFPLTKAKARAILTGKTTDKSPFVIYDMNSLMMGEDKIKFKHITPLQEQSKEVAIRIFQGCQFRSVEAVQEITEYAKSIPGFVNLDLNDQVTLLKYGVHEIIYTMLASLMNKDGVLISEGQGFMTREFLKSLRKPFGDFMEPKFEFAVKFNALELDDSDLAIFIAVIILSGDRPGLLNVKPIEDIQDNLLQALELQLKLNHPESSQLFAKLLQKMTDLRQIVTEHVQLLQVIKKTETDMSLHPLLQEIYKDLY
Sequence of Peroxisome proliferator-activated receptor gamma/Nuclear receptor coactivator 1 (Q15788 whole entry, further chain): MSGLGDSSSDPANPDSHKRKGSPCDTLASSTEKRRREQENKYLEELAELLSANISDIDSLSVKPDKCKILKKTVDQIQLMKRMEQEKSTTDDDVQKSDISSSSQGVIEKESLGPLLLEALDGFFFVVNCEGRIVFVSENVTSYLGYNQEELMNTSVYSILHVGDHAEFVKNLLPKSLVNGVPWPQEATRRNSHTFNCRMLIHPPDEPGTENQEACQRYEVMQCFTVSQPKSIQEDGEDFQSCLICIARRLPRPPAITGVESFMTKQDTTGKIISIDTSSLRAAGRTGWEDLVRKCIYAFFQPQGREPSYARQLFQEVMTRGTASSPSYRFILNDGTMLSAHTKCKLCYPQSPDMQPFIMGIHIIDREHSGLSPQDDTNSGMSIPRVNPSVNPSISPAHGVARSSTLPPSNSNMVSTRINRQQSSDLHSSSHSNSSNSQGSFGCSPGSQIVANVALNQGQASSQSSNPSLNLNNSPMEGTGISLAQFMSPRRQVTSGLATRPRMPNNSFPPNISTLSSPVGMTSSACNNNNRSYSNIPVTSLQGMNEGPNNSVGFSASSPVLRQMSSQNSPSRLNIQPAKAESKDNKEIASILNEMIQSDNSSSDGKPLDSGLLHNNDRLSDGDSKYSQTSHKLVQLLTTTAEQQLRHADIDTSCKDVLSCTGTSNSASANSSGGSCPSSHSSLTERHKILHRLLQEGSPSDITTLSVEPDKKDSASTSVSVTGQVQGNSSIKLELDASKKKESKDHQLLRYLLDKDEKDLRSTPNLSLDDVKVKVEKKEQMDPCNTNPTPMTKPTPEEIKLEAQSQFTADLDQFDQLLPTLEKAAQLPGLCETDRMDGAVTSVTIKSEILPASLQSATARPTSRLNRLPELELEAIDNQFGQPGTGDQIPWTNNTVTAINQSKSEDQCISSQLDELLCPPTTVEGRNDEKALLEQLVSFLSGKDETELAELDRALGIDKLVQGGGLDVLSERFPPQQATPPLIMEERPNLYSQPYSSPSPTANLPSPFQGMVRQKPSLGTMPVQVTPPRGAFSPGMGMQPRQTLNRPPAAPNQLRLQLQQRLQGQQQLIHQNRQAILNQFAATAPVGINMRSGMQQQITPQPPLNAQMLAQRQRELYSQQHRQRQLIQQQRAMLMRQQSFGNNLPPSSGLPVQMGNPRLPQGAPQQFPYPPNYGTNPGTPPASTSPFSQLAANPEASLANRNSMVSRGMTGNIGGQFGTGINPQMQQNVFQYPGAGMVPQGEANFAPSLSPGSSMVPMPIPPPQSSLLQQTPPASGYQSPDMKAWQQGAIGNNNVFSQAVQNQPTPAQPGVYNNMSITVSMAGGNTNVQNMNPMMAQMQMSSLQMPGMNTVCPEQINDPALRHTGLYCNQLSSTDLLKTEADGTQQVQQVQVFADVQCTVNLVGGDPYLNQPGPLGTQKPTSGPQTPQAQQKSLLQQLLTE
Sequence of Peroxisome proliferator-activated receptor gamma/Nuclear receptor coactivator 2 (P37231 whole entry): as the sequence (P37231 whole entry) above
Sequence of Peroxisome proliferator-activated receptor gamma/Nuclear receptor coactivator 2 (Q15596 whole entry, further chain): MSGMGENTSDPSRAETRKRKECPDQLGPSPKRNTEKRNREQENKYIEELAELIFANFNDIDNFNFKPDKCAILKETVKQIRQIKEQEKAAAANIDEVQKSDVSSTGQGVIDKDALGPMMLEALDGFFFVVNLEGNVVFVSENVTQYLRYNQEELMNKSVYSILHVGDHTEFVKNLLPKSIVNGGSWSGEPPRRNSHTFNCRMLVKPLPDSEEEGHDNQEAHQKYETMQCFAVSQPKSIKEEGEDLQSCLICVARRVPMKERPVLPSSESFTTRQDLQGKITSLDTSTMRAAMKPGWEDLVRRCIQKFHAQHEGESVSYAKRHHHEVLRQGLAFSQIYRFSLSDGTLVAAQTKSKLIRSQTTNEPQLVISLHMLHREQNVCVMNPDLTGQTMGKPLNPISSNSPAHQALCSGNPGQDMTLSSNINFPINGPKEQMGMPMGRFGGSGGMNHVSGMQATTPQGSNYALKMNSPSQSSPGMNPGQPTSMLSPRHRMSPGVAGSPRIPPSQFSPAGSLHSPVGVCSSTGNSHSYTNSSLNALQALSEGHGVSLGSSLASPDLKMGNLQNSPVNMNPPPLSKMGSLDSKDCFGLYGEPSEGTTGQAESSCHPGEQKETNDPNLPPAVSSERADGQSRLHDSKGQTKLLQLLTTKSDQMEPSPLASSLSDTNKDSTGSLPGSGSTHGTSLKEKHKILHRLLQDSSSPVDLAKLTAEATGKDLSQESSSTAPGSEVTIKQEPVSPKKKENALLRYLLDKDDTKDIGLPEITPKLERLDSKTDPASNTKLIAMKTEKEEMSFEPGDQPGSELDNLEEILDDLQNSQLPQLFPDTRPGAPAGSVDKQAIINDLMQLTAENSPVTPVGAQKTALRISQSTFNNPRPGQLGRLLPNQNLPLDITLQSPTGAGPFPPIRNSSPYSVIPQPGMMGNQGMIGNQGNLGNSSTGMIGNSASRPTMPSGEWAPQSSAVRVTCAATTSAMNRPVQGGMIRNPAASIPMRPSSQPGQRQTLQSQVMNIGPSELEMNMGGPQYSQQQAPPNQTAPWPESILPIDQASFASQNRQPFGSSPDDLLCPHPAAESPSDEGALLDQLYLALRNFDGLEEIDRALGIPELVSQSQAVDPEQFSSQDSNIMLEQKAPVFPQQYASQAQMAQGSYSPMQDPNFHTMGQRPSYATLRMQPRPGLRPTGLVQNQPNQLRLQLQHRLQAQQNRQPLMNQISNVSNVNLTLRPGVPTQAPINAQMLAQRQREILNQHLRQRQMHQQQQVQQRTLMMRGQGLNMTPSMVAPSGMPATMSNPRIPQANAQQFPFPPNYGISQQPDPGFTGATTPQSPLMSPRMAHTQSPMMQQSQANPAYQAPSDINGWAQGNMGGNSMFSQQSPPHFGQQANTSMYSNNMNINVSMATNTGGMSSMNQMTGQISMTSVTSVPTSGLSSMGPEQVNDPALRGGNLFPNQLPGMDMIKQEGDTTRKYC
Sequence of Nonstructural protein 1 (Q194T2 whole entry): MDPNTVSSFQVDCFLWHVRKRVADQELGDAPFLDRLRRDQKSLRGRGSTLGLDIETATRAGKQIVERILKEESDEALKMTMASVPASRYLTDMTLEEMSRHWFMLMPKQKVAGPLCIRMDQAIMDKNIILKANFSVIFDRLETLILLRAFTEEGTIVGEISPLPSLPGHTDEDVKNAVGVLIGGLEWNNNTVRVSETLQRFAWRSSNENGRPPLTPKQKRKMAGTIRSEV

Structure (SMILES): CC1(C)CC(=O)c2c(nc(SCC(=O)Nc3nsc(-c4ccccc4)n3)c(C#N)c2-c2ccccc2)C1
- EC50 [1]: > 120 µM (not active)
- EC50 (BJ [2]): > 150 µM (not active)
- EC50 [3]: 35 µM (active)
- EC50 [4]: 13.4 µM (active)
- EC50 (BJ [5]): 7.76 µM (active)
- EC50 (BJ [6]): > 150 µM (not active)
- AC50 [7]: > 70 µM (inactive)
- EC50 [8]: > 120 µM (not active)
- EC50 (BJ [9]): 596 nM (active)

Structure (SMILES): Cc1ccc(-c2nnc(N3CCN(C(=O)COc4ccccc4)CC3)c3ccccc23)cc1
- AC50 [10]: 13.9 µM (active)
- AC50 [11]: 31.6 µM (active)
- EC50 [12]: 4.54 µM (active)
- AC50 [13]: 34.9 µM (active)

Structure (SMILES): O=C(/C=C/c1ccc(F)cc1)NC(=S)NNC(=O)c1cnccn1
- EC50 [1]: 11.7 µM (active)
- IC50 (Nonstructural protein 1): 1.56 µM (active)
- AC50 [14]: 3.35 µM (active)
- EC50 [15]: 1.37 µM (active)
- EC50 [4]: > 120 µM (not active)
- EC50 (Streptococcus): 2.75 µM (active)
- AC50 [7]: 1.39 µM (active)
- AC50 [16]: 2.01 µM (active)
- EC50 [8]: 10.5 µM (active)
- AC50 [17]: > 70 µM (inactive)
- AC50 (INS1): 1.21 µM (active)

Structure (SMILES): Cc1ccc(C(=O)C2=C(O)C(=O)N(c3ncccn3)C2c2ccc(Cl)cc2)o1 (centres undefined)
- EC50 [18]: > 79.4 µM (inactive)
- EC50 [19]: > 79.4 µM (not active)
- EC50 [20]: 35.8 µM (not active)

Structure (SMILES): O=[N+]([O-])c1cc2c(cc1CNCCc1ccc3c(c1)OCO3)OCO2
- EC50 [21]: 3.35 µM (active)
- EC50 [22]: 1.06 µM (active)

Structure (SMILES): O=C(Nc1cc(-c2nc3ncccc3o2)ccc1Cl)c1ccc([N+](=O)[O-])o1
- AC50 [23]: 5.76 µM (active)

Structure (SMILES): N#C/C(=C\c1cccc(Oc2ccccc2)c1)C(=O)N1CCOCC1
- AC50 [14]: 8.82 µM (active)

Structure (SMILES): COc1cccc(CNC(=O)CSc2cc(=O)n(C)c3ccccc23)c1
- EC50 [18]: > 79.4 µM (inactive)
- EC50 [19]: > 79.4 µM (not active)
- EC50 [20]: > 79.4 µM (not active)
